# Source: article PMC7822874, “Chemoprotective antimalarials identified through quantitative high-throughput screening of Plasmodium blood and liver stage parasites” (Scientific Reports, 2021)
# Where two headings read alike, the source gives them in different places.
# Key:
# [1] = system: T1, Plasmodium falciparum Dd2-attB (parental line), asexual blood stages; test: microbe, parasite or virus in culture; set-up: species or system P. falciparum Dd2-attB in human erythrocytes; SYBR Green-I proliferation assay, Dd2-attB parental line, asexual blood stages; conditions: Plasmodium falciparum, DD2, Erythrocyte, 72 h, read-out: Calculated / Average Log AC50 (M), mean of replicates, 72 h (converted)
# T1 construct: Dd2-attB, the isogenic parental line
# [2] = system: P. berghei-ANKA-GFP-LucCON liver stage parasites in HepG2-A16-CD81EGFP cells; test: P. berghei liver stage Pb-Luc assay, Method 1 (UCSD, 1536-well); assay type: cell-based, Plasmodium berghei; conditions: for activity at 1 µM / activity at 3 µM: 48 h, average of 2 wells, 1536-well plate; for activity at 1 µM: nominal 1 uM (10 mM stock), […] for 15 mM, 1.2 uM for 12 mM, 2 uM for 20 mM stock; for activity at 3 µM: nominal 3 uM (10 mM stock), 4.5 uM for 15 mM, 3.6 uM for 12 mM, 6 uM for 20 mM stock; for Pb-Luc signal, 1 uM, repeat 1: reference of the scale not given here; for Pb-Luc signal, 1 uM, repeat 2: reference of the scale not given here; for Pb-Luc signal, 1 uM, repeat 3: reference of the scale not given here; for Pb-Luc signal, 3 uM, repeat 1: reference of the scale not given here; for Pb-Luc signal, 3 uM, repeat 2: reference of the scale not given here; for Pb-Luc signal, 3 uM, repeat 3: reference of the scale not given here
# [3] = system: luciferase-expressing P. berghei liver stage parasites in HepG2 cells; test: Inhibition of liver-stage development assay (ILSDA), Method 2 (WRAIR, 96-well); assay type: cell-based, Plasmodium berghei; conditions: for AC50: Plasmodium berghei, HepG2, Method 2
# [4] = system: Plasmodium falciparum Dd2 asexual blood stage parasites; test: microbe, parasite or virus in culture; set-up: species or system Plasmodium falciparum Dd2 in human erythrocytes; single determination (one 11-point concentration-response curve); conditions: Plasmodium falciparum, DD2, Erythrocyte, 72 h; read-out: AC50
# HepG2-A16-CD81EGFP cells = conditions: average of 2 wells; for HepG2 viability signal, 3 uM, repeat 2: nominal 3 uM (10 mM stock), 4.5 uM for 15 mM, 3.6 uM for 12 mM, 6 uM for 20 mM stock
# in vitro [5] = conditions: human, n = 1
# in vitro [6] = conditions: human, HepG2-A16-CD81EGFP cells, uninfected
# [7] = Plasmodium berghei, repeat 1, read-out: Pb-Luc signal, 1 uM, repeat 1
# [8] = Plasmodium berghei, repeat 2, read-out: Pb-Luc signal, 1 uM, repeat 2
# [9] = Plasmodium berghei, repeat 3, read-out: Pb-Luc signal, 1 uM, repeat 3
# [10] = Plasmodium berghei, repeat 1, read-out: Pb-Luc signal, 3 uM, repeat 1
# [11] = Plasmodium berghei, repeat 2, read-out: Pb-Luc signal, 3 uM, repeat 2
# [12] = Plasmodium berghei, repeat 3, read-out: Pb-Luc signal, 3 uM, repeat 3
# [13] = Plasmodium berghei, Method 1, Hill fit, 50% of maximum activity response, read-out: AC50
# [14] = Plasmodium berghei, Method 1, log10 of molar AC50 from Hill fit, read-out: Log AC50 (converted)
# [15] = nominal 1 uM (10 mM stock), […] for 15 mM, 1.2 uM for 12 mM, 2 uM for 20 mM stock
structure (smiles),measurement,setting,value
CCOC(=O)c1cnn(-c2cc(C(N)=O)ccn2)c1-c1ccc(OC)cc1 [NCGC00421836-01],AC50,[1],6.33e-06 M
O=C(O)c1ccc(O)c2ncc(N3CCCCC3)cc12 [NCGC00241752-01],AC50,[1],1.65e-05 M
COC(=O)c1ccnc(-c2cc(C(=O)NCCc3ccccc3)ccn2)c1 [NCGC00351541-01],AC50,[1],2.16e-05 M
O=C(O)c1ccnc(-n2ncc(C(OCCN3CCCCC3)c3ccccc3)c2-c2ccccc2Cl)c1 (centres unmarked) [NCGC00483104-01],AC50,[1],1.36e-05 M
CC1=C[C@@H](CNCc2cccnc2)[C@H](C(C)C)C[C@H]1Cc1nnc(-c2ccc([N+](=O)[O-])cc2)o1 [NCGC00394797-01],activity at 1 µM,[2]; [7],72%
same,activity at 1 µM,[2]; [8],75%
same,activity at 1 µM,[2]; [9],71.6%
same,activity at 3 µM,[2]; [10],23.8%
same,activity at 3 µM,[2]; [11],19.3%
same,activity at 3 µM,[2]; [12],23.7%
same,AC50,[2]; [13],1580 nM
same,AC50,[2]; [14],1580 nM
same,Max Resp (signal direction of the dose response),"[3]; Method 2, Decrease = decreasing P. berghei viability with dose, Increase = increasing signal, Inactive = no dose response",Decrease
same,AC50,"[3]; Hill fit, 50% of maximum activity response, read-out: AC50",562 nM
same,AC50,"[3]; log10 of molar AC50 from Hill fit, read-out: Log AC50 (converted)",562 nM
same,AC50,[4],5310 nM
same,"HepG2 viability signal, 1 uM, repeat 1","HepG2-A16-CD81EGFP cells; nominal 1 uM (10 mM stock), […] for 15 mM, 1.2 uM for 12 mM, 2 uM for 20 mM stock, repeat 1",104.31%
same,"HepG2 viability signal, 1 uM, repeat 2",HepG2-A16-CD81EGFP cells; [15],102.23%
same,"HepG2 viability signal, 3 uM, repeat 2",HepG2-A16-CD81EGFP cells,86.98%
same,CC50 at 48 h,in vitro [5]; hepg2,24.3 µM
CN1CCC(N2CCCC(CNC(=O)c3cccc(-c4cc(O)c5ncccc5c4)c3)C2)CC1 (centres unmarked) [NCGC00247748-01],AC50,[1],1.85e-05 M
Cn1cnc(-c2nccc3c(O)nc(OCCCC(F)(F)F)nc23)c1 [NCGC00381768-02],AC50,[1],2.08e-05 M
Cc1nn2c(c1-c1ccccc1-c1ccccc1)N(CCC(C)C)CCC2 [NCGC00420437-01],Max Resp (signal direction of the dose response),"[2]; Method 1, Decrease = decreasing P. berghei viability with dose, Increase = increasing signal, Inactive = no dose response",Decrease
same,AC50,"[2]; Method 1, Hill fit, 50% of maximum activity response, read-out: AC50",1120 nM
same,Log AC50 (M),"[2]; Method 1, log10 of molar AC50 from Hill fit",-5.950 M
same,activity at 1 µM,[2]; [7],19.7%
same,activity at 1 µM,[2]; [8],20.4%
same,activity at 1 µM,[2]; [9],5.15%
same,activity at 3 µM,[2]; [10],4.48%
same,activity at 3 µM,[2]; [11],7.19%
same,activity at 3 µM,[2]; [12],3.33%
same,AC50,[2]; [13],1000 nM
same,AC50,[2]; [14],1000 nM
same,Activity direction (Decrease / Inactive),"[3]; P. berghei liver stage, Method 2, dose response",Inactive
same,AC50,[4],243 nM
same,"HepG2 viability signal, 1 uM, repeat 2",HepG2-A16-CD81EGFP cells; [15],106.23%
same,"HepG2 viability signal, 3 uM, repeat 2",HepG2-A16-CD81EGFP cells,19.77%
same,"viability at 48 h, 1 µM",in vitro [6],104%
same,"viability at 48 h, 3 µM",in vitro [6],10.8%
same,CC50 at 48 h,in vitro [5]; HepG2 cells,19.8 µM
OCc1cn(Cc2ccc(O)c3ncccc23)cn1 [NCGC00183377-01],AC50,[1],2.08e-05 M
O=C(O)c1ccc(O)c2ncc(-c3cccc(N4CCOCC4)c3)cc12 [NCGC00241753-01],AC50,[1],2.16e-05 M
O=C(N[C@H]1CC(=O)N(c2cc(-c3ccccc3)[nH]n2)C1=O)c1ccccc1 [NCGC00489852-01],AC50,[1],7.1e-10 M
O=C(O)c1ccnc2cc(C(OCCCC3CCCCN3)c3ccccc3Cl)[nH]c12 (centres unmarked) [NCGC00479271-01],AC50,[1],8.94e-06 M
